Read-outs that look alike come from different tables or passages of the source. A value given as a limit tells only on which side of the number the result lay.

Data set [1] deals with A549 (Lung cancer) cells. Put plainly: Effect on cell migration, A549. It is filed as cell-based. The settings on record: Homo sapiens, p value in same cell, read-out: Maximum effects (cell migration); for Emax at 1 µM: at 10^−6 M; for Emax at 0.1 µM: at 10^−7 M. The protocol: (§1) Cells of different cancer lines, i.e. U-373 MG (Glioma cancer), PC3 (prostate cancer and A549 (Lung cancer) were seeded on culture flask 48 hours before the migration experiment. On the test day, cells were treated with or without the azonafide derivatives mentioned in table 3 in closed Falcon dishes containing a buffered medium at a controlled temperature (37.0±0.1° C.) for 12 or 22 hours, as noted in the right column of table 3. The azonafide derivatives were used at three non-cytotoxic concentrations (10^−6 M, 10^−7, 10^−8 M). Migration of the cells was observed by means of a CCD-camera mounted on a phase-contrast microscope. Statistical analysis of the migration, with the non-parametric Mann-Whitney test, was established for 25% and 50% of the most motile cells and for the entire cell population.

In data set [2] the test system is human cancer cell lines Hs683, U-373MG, HCT-15, LoVo, A549 and MCF-7. Description: MTT test, effect on overall cell growth (mean of six cell lines, examples 3 to 26). It is filed as cell-based. Particulars: mean of six cell lines Hs683, U-373MG, A549, MCF-7, 72 hours incubation, range of molar concentrations resulting in 50% inhibition of overall tumor cells growth. Here is the method: (§2) MTT tests were performed in order to rapidly, i.e. within 5 days, measure the effect of azonafide derivatives of this invention on the overall cell growth. The test measures the number of metabolically active living cells that are able to transform the yellow product 3-(4,5-dimethylthiazol-2-yl)-2,5-diphenyl tetrazolium bromide (herein referred as MTT) into the blue product formazan dye by mitochondrial reduction. The amount of formazan obtained at the end of the experiment, measured by means of a spectrophotometer, is directly proportional to the number of living cells. Optical density determination thus enables a quantitative measurement of the effect of the investigated compounds as compared to the control condition (untreated cells) and/or to other reference compounds.
(§3) Height human cancer cell lines described in table 1 were used in the following MTT tests. These cell lines cover six histological cancer types, being prostate, glioma, pancreas, colon, lung and breast cancers. Cells were allowed to grow in 96-well micro-wells with a flat bottom with an amount of 100 μl of cell suspension per well with 1,000 to 4,000 cells/well depending on the cell type used. Each cell line was seeded in a well known MEM 5% serum culture medium.
(§4) The detailed experimental procedure was as following: after a 24-hour period of incubation at 37° C., the culture medium was replaced by 100 μl of fresh medium in which the compound to be tested was dissolved at the following molar concentrations: 10^−9 M, 5.10^−9 M, 10^−8 M, 5.10^−8 M, 10^−7 M, 5.10^−7 M, 10^−6 M, 5.10^−6 M and 10^−5 M. Each experiment was repeated 6 times.
(§5) After 72 hours of incubation at 37° C. with (experimental conditions) or without (control condition) the compound to be tested, the medium was replaced by 100 μl MTT dissolved in RPMI at a concentration of 1 mg/ml. The micro-wells were subsequently incubated during 3 hours at 37° C. and centrifuged at 400 g during 10 minutes. MTT was removed and formazan crystals formed were dissolved in 100 μl DMSO. The micro-wells were shaken for 5 minutes and read on a spectrophotometer at wavelengths of 570 nm (maximum formazan absorbance) and 630 nm (back-ground noise).
(§6) For each experimental condition, the mean optical density was calculated, as well as the percentage of remaining living cells in comparison with the control.
(§7) IC50 values for compounds of examples 3 to 26 were obtained on cell lines Hs683, U-373MG, HCT-15, LoVo, A549 and MCF-7 described in Table 1. IC50 values for compounds from examples 27 to 45 were obtained on cell lines PC3, U-373MG, BxPC3, LoVo, A549 and MCF-7 described in Table 1.

In data set [3] the test system is U-373 MG, PC-3 and/or A549 cancer cells. Put plainly: Effect on cell migration, summary of table 3. It is filed as cell-based, human. Particulars: for migration level of cancer cells: U-373 MG, PC-3 and/or A549 cancer cells at the non-cytotoxic concentrations of this study; for cell migration activity compared with the closest compounds known in the art: comparison drawn from table 3. The protocol:
as §1

The subject of data set [4] is PC3 (prostate cancer) cells. Description: Effect on cell migration, PC3. It is filed as cell-based. Particulars: Homo sapiens, 22 hours on the 25% of most motile cells, p value in same cell, read-out: Maximum effects (cell migration); for Emax at 0.01 µM: at 10^−8 M; for Emax at 1 µM: at 10^−6 M. Here is the method: as §1
Data set [5] has as its system U-373 MG (Glioma cancer) cells. Description: Effect on cell migration, U-373MG. It is filed as cell-based. The settings on record: Homo sapiens, U373 MG, p value in same cell, read-out: Maximum effects (cell migration); for Emax at 1 µM: at 10^−6 M; for Emax at 0.1 µM: at 10^−7 M. Here is the method:
as §1

The test system of data set [6] is human cancer cell lines PC3, U-373MG, BxPC3, LoVo, A549 and MCF-7. Description: MTT test, effect on overall cell growth (mean of six cell lines, examples 27 to 45). It is filed as cell-based. Particulars: mean of six cell lines PC3, U-373MG, A549, MCF-7, 72 hours incubation, range of molar concentrations resulting in 50% inhibition of overall tumor cells growth. The protocol: as §2, §3, §4, §5, §6, §7
Background: Tetrazolium dyes change colour on reduction, which living cells bring about.

The mark [7] stands for this setting: 22 hours on the 25% of most motile cells.

As for `CN(C)CCN1C(=O)c2cccc3cc4cccc(/N=C\c5cc(O)ccc5O)c4c(c23)C1=O` [Example 5, 11-{[(1Z)-(2,5-dihydroxyphenyl)methylidene}amino]-2-[2-(dimethylamino)ethyl]-1H-dibenzo[de,h]isoquinoline-1,3(2H)-dione], the melting point (as a rule, the temperature, or range, at which the solid turns liquid) was 225 °C. For the same compound, the Emax at 0.01 µM in data set [1] (22 hours on the 25% of most motile cells, at 10^−8 M) is -47%. The IC50 (as a rule, the concentration at which inhibition is half-maximal) in data set [2] was over 10 µM. In addition, in data set [3], the “migration level of cancer cells” value is “induced a decrease in the migration level” and the “cell migration activity compared with the closest compounds known in the art” value is “significantly greater cell migration activity than the closest compounds known in the art, or similar cell migration activity at significantly lower concentrations”.
In the case of `CN(C)CCN1C(=O)c2cccc3cc4c(/N=C/c5ccc6c(c5)OCO6)cccc4c(c23)C1=O` [Example 8, 8-{[(1E)-1,3-benzodioxol-5-ylmethylidene]amino}-2-[2-(dimethylamino)ethyl]-1H-dibenzo[de,h]isoquinoline-1,3(2H)-dione], the Emax at 0.01 µM in data set [4] is -29%. Besides, the IC50 in data set [2] lay within 1 to 5 µM. Moreover, in data set [3], the “migration level of cancer cells” value is reported as “induced a decrease in the migration level” and the “cell migration activity compared with the closest compounds known in the art” value was “significantly greater cell migration activity than the closest compounds known in the art, or similar cell migration activity at significantly lower concentrations”. The Emax at 1 µM in data set [5] (setting [7]) is -30%.
With `COC(=O)Nc1cccc2cc3cccc4c3c(c12)C(=O)N(CCN(C)C)C4=O` [Example 9, methyl {2-[2-(dimethylamino)ethyl]-1,3-dioxo-2,3-dihydro-1H-dibenzo[de,h]isoquinolin-11-yl}carbamate], the Emax at 1 µM in data set [1] (12 hours on the 25% of most motile cells) was -40%. Also, in data set [1] (setting [7]), the Emax at 1 µM was -28%. This compound also came in with an IC50 in data set [2] of 5 to 10 µM. In data set [3], the “migration level of cancer cells” value is reported as “induced a decrease in the migration level” and the “cell migration activity compared with the closest compounds known in the art” value was “significantly greater cell migration activity than the closest compounds known in the art, or similar cell migration activity at significantly lower concentrations”. Further, in data set [5] (12 and 22 hours on the 25% of most motile cells), the Emax at 0.1 µM is -31%.
For the compound `CN(C)CCN1C(=O)c2cccc3cc4cccc(NC(=O)Cc5ccc(Cl)cc5)c4c(c23)C1=O` [Example 11, 2-(4-chlorophenyl)-N-{2-[2-(dimethylamino)ethyl]-1,3-dioxo-2,3-dihydro-1H-dibenzo[de,h]isoquinolin-11-yl}acetamide], the Emax at 1 µM in data set [4] is -37%. Further, in data set [4] (at 10^−7 M), the Emax at 0.1 µM was -27%. For the same compound, in data set [2], the IC50 was over 10 µM. In data set [3], the “migration level of cancer cells” value was “induced a decrease in the migration level” and the “cell migration activity compared with the closest compounds known in the art” value is “significantly greater cell migration activity than the closest compounds known in the art, or similar cell migration activity at significantly lower concentrations”. Also, in data set [5] (setting [7]), the Emax at 1 µM was -18%.
As for `CCCCCNC(=O)Nc1cccc2cc3cccc4c3c(c12)C(=O)N(CCN(C)C)C4=O` [Example 13, 1-{2-[2-(dimethylamino)ethyl]-1,3-dioxo-2,3-dihydro-1H-dibenzo[de,h]isoquinolin-11-yl}-3-pentylurea], in data set [4], the Emax at 0.01 µM is -43%. The compound also returned an IC50 in data set [2] of 5 to 10 µM. In data set [3], the “migration level of cancer cells” value is given as “induced a decrease in the migration level” and the “cell migration activity compared with the closest compounds known in the art” value is recorded as “significantly greater cell migration activity than the closest compounds known in the art, or similar cell migration activity at significantly lower concentrations”. Also, the Emax at 0.1 µM in data set [5] (setting [7]) was -24%.
For the compound `CCOC(=O)Nc1cccc2cc3cccc4c3c(c12)C(=O)N(CCN(C)C)C4=O` [Example 17, ethyl {2-[2-(dimethylamino)ethyl]-1,3-dioxo-2,3-dihydro-1H-dibenzo[de,h]isoquinolin-11-yl}carbamate], the Emax at 0.1 µM in data set [1] (setting [7]) is -44%. This compound returned an IC50 in data set [2] of over 10 µM. Besides, in data set [3], the “migration level of cancer cells” value is given as “induced a decrease in the migration level” and the “cell migration activity compared with the closest compounds known in the art” value is “significantly greater cell migration activity than the closest compounds known in the art, or similar cell migration activity at significantly lower concentrations”. For the same compound, the Emax at 0.1 µM in data set [5] (setting [7]) is -42%.
As for `CCCCCCCCOC(=O)Nc1cccc2cc3cccc4c3c(c12)C(=O)N(CCN(C)C)C4=O` [Example 25, octyl {2-[2-(dimethylamino)ethyl]-1,3-dioxo-2,3-dihydro-1H-dibenzo[de,h]isoquinolin-11-yl}carbamate], the Emax at 0.1 µM in data set [1] (setting [7]) is -28%. Besides, the Emax at 0.01 µM in data set [4] is -21%. In addition, the half-maximal inhibitory concentration (IC50) in data set [2] is 5 to 10 µM. Moreover, the “migration level of cancer cells” value in data set [3] was “induced a decrease in the migration level”.
For `CCCCOC(=O)Nc1cccc2cc3cccc4c3c(c12)C(=O)N(CCN(C)C)C4=O` [Example 29, n-butyl {2-[2-(dimethylamino)ethyl]-1,3-dioxo-2,3-dihydro-1H-dibenzo[de,h]isoquinolin-11-yl}carbamate], the Emax at 0.1 µM in data set [1] (setting [7]) is -33%. Further, the Emax at 1 µM in data set [4] was -22%. Moreover, in data set [3], the “migration level of cancer cells” value is on record as “induced a decrease in the migration level” and the “cell migration activity compared with the closest compounds known in the art” value is on record as “significantly greater cell migration activity than the closest compounds known in the art, or similar cell migration activity at significantly lower concentrations”. In data set [6], this compound returned an IC50 of over 10 µM.
For `CN(C)CCN1C(=O)c2cccc3cc4cccc(NC(=S)Nc5ccc(OC(F)(F)F)cc5)c4c(c23)C1=O` [Example 31, 1-{2-[2-(dimethylamino)ethyl]-1,3-dioxo-2,3-dihydro-1H-dibenzo[de,h]isoquinolin-11-yl}-3-[4-(trifluoromethoxy)phenyl]thiourea], the Emax at 1 µM in data set [4] was -30%; in data set [5] (setting [7]) it was -60%. Moreover, the “migration level of cancer cells” value in data set [3] is “induced a decrease in the migration level”. The “cell migration activity compared with the closest compounds known in the art” value in data set [3] is “significantly greater cell migration activity than the closest compounds known in the art, or similar cell migration activity at significantly lower concentrations”. In data set [6], this compound displayed an IC50 of over 10 µM.

Source of the values: patent publication US7741337B2, “Azonafide derivatives, methods for their production and pharmaceutical compositions therefrom” (Unibioscreen S.A., priority 2005, dated 2010).
